Test results published in patent US20230016424A1, “HYBRID AMIDE DERIVATIVES OF AMPHOTERICIN B” (The Board of Trustees of the University of Illinois, priority 2019, published 2023).
Values after ≈ are worked out from the molar mass of the structure shown. Like-named read-outs stand apart in the source and are kept apart here.

Assays:
C. albicans SN250 = assay: MIC; type: cell-based, Candida albicans
C. albicans = assay: MIC; type: cell-based
C. krusei = assay: MIC; type: cell-based
C. glabrata = assay: MIC; type: cell-based
C. tropicalis = assay: MIC; type: cell-based
A. fumigatus 91 = assay: MIC; type: cell-based
A. fumigatus 1163 = assay: MIC; type: cell-based
A. fumigatus 1100 = assay: MIC; type: cell-based
[1] = system: C. albicans SN250, C. albicans, C. krusei, C. glabrata, C. tropicalis, A. fumigatus 91, 1163, 1100; assay: Average MIC over the tested strains; type: cell-based; details: average over the 8 listed strains
Plasma Stability = type: in vitro ADME
Protocol: Plasma Stability: Procedure: […] Plasma was warmed to 37° C. prior to the experiment and centrifuged for 5 mins at 4000 rpm. […] Each time point was monitored in triplicate (0, 10, 30, 60 and 120 min). 4 uL/well aliquot of the working solution was mixed to the blank plasma and incubated at 37° C. AT each time point samples were quenched with ACN stop solution containing 200 ng/ml Tolbutamide & 200 ng/ml Labetalol at 1:3 ratio and mix well on shaker for 10 min then centrifuge at 4000 rpm for 15 min. A 100 ul aliquot of supernatant was mixed with 100 μL of ultra-pure and submitted for LC-MS/MS analysis.

[2] = Liver Microsome stability (In Vitro Metabolism); type: in vitro ADME; details: for Remaining (T = NCF60 min): no cofactor 60 min
Protocol: Working Compound solution: 10 uM in 50 mM potassium phosphate buffer with 9% MeOH and 1% DMSO
Microsome solution: working concentration 0.625 mg/ml
Stopping solution: Cold ACN with 200 ng/ml Tolbutamide and 200 ng/ml Labetalol (4° C.)
Procedure: In the well plates (T5, T10, T20, T30, T60, NCF60 (no cofactor 60)) 10 uL of the compound/control working solution was added (except T0 and matric blank) followed by microsome solution (80 uL) and the mixture was incubated at 37 C for about 10 mins. A solution of potassium phosphate (10 ul of 50 mM) was added to NCF60 well, incubated at 37 C and time counting started. After prewarming 10 ul of NADPH regenerating solution was added to each plate to start the reaction. At different time point 300 uL/well of stopping solution to terminate the reaction. The sampling plates were shaken for 10 mins and the centrifuged for 20 mins at 4000 rpm. The supernatant was half diluted with ultra pure water and the analyzed using LCMS.

## CC(CO)NC(=O)C1C(O)CC2(O)CC(O)CC(O)C(O)CCC(O)CC(O)CC(=O)OC(C)C(C)C(O)C(C)C=CC=CC=CC=CC=CC=CC=CC(OC3OC(C)C(O)C(N)C3O)CC1O2 (stereo not shown) [AC]
C. albicans SN250
  MIC C. albicans SN250: 0.3 µM (≈ 0.294 µg/mL)
C. albicans
  MIC C. albicans: 0.3 µM (≈ 0.294 µg/mL)
C. krusei
  MIC C. krusei: 0.45 µM (≈ 0.442 µg/mL)
C. glabrata
  MIC C. glabrata: 0.3 µM (≈ 0.294 µg/mL)
C. tropicalis
  MIC C. tropicalis: 0.35 µM (≈ 0.343 µg/mL)
A. fumigatus 91
  MIC A. fumigatus 91: 2 µM (≈ 1.96 µg/mL)
A. fumigatus 1163
  MIC A. fumigatus 1163: 1 µM (≈ 0.981 µg/mL)
A. fumigatus 1100
  MIC A. fumigatus 1100: 1 µM (≈ 0.981 µg/mL)
[1]
  MIC: 0.713 µM

## CCC(CO)NC(=O)C1C(O)CC2(O)CC(O)CC(O)C(O)CCC(O)CC(O)CC(=O)OC(C)C(C)C(O)C(C)C=CC=CC=CC=CC=CC=CC=CC(OC3OC(C)C(O)C(N)C3O)CC1O2 (stereo not shown) [AD]
C. albicans SN250
  MIC C. albicans SN250: 0.3 µM (≈ 0.299 µg/mL)
C. albicans
  MIC C. albicans: 0.35 µM (≈ 0.348 µg/mL)
C. krusei
  MIC C. krusei: 0.5 µM (≈ 0.498 µg/mL)
C. glabrata
  MIC C. glabrata: 0.3 µM (≈ 0.299 µg/mL)
C. tropicalis
  MIC C. tropicalis: 0.4 µM (≈ 0.398 µg/mL)
A. fumigatus 91
  MIC A. fumigatus 91: 2 µM (≈ 1.99 µg/mL)
A. fumigatus 1163
  MIC A. fumigatus 1163: 1 µM (≈ 0.995 µg/mL)
A. fumigatus 1100
  MIC A. fumigatus 1100: 1 µM (≈ 0.995 µg/mL)
[1]
  MIC: 0.731 µM

## CC1C=CC=CC=CC=CC=CC=CC=CC(OC2OC(C)C(O)C(N)C2O)CC2OC(O)(CC(O)CC(O)C(O)CCC(O)CC(O)CC(=O)OC(C)C(C)C1O)CC(O)C2C(=O)NCC(O)CO (mixture of isomers) [AJ]
C. albicans SN250
  MIC C. albicans SN250: 0.15 µM
C. albicans
  MIC C. albicans: 0.20 µM
C. krusei
  MIC C. krusei: 0.3 µM
C. glabrata
  MIC C. glabrata: 0.08 µM
C. tropicalis
  MIC C. tropicalis: 0.2 µM
A. fumigatus 91
  MIC A. fumigatus 91: 1 µM
A. fumigatus 1163
  MIC A. fumigatus 1163: 0.3 µM
A. fumigatus 1100
  MIC A. fumigatus 1100: 0.4 µM
[1]
  MIC: 0.329 µM

## CC1C=CC=CC=CC=CC=CC=CC=CC(OC2OC(C)C(O)C(N)C2O)CC2OC(O)(CC(O)CC(O)C(O)CCC(O)CC(O)CC(=O)OC(C)C(C)C1O)CC(O)C2C(=O)NCCO (stereo not shown) [Compound AA]
C. albicans SN250
  MIC C. albicans SN250: 0.25 µM (≈ 0.242 µg/mL)
C. albicans
  MIC C. albicans: 0.225 µM (≈ 0.218 µg/mL)
C. albicans; listed as AmBHEA
  MIC C. albicans: 0.225 µM (≈ 0.218 µg/mL)
C. krusei
  MIC C. krusei: 0.45 µM (≈ 0.435 µg/mL)
C. krusei; listed as AmBHEA
  MIC C. krusei: 0.45 µM (≈ 0.435 µg/mL)
C. glabrata
  MIC C. glabrata: 0.145 µM (≈ 0.14 µg/mL)
C. glabrata; listed as AmBHEA
  MIC C. glabrata: 0.145 µM (≈ 0.14 µg/mL)
C. tropicalis
  MIC C. tropicalis: 0.225 µM (≈ 0.218 µg/mL)
C. tropicalis; listed as AmBHEA
  MIC C. tropicalis: 0.225 µM (≈ 0.218 µg/mL)
A. fumigatus 91
  MIC A. fumigatus 91: 1 µM (≈ 0.967 µg/mL)
A. fumigatus 91; listed as AmBHEA
  MIC A. fumigatus 91: 1 µM (≈ 0.967 µg/mL)
A. fumigatus 1163
  MIC A. fumigatus 1163: 0.525 µM (≈ 0.508 µg/mL)
A. fumigatus 1163; listed as AmBHEA
  MIC A. fumigatus 1163: 0.525 µM (≈ 0.508 µg/mL)
A. fumigatus 1100
  MIC A. fumigatus 1100: 0.7 µM (≈ 0.677 µg/mL)
A. fumigatus 1100; listed as AmBHEA
  MIC A. fumigatus 1100: 0.7 µM (≈ 0.677 µg/mL)
[1]
  MIC: 0.44 µM
[1]; listed as AmBHEA
  MIC: 0.44 µM
Plasma Stability; Human Plasma
  % Remaining at 120 min: 119%
  Half Life: >4.82 h
Plasma Stability; Rat Plasma
  % Remaining at 120 min: 108%
  Half Life: >4.82 h
[2]; Dog liver microsomes
  CL: <9.6 µL/min/mg
  CLint: <14 mL/min/kg
  Remaining (T = 60 min): 88.5%
  T1/2: >2.42 h
  Remaining (T = NCF60 min): 97.4%
[2]; Human liver microsomes
  CL: <9.6 µL/min/mg
  CLint: <8.6 mL/min/kg
  Remaining (T = 60 min): 111%
  T1/2: >2.42 h
  Remaining (T = NCF60 min): 142%
[2]; Monkey liver microsomes
  CL: <9.6 µL/min/mg
  CLint: <13 mL/min/kg
  Remaining (T = 60 min): 113%
  T1/2: >2.42 h
  Remaining (T = NCF60 min): 103%
[2]; Mouse liver microsomes
  CL: <9.6 µL/min/mg
  CLint: <38 mL/min/kg
  Remaining (T = 60 min): 118%
  T1/2: >2.42 h
  Remaining (T = NCF60 min): 140%
[2]; Rat liver microsomes
  CL: <9.6 µL/min/mg
  CLint: <17 mL/min/kg
  Remaining (T = 60 min): 130%
  T1/2: >2.42 h
  Remaining (T = NCF60 min): 113%
